Test results taken from paper PMC5218480 (PLoS ONE, 2017).

Test system: MV-4-11 cells
Assay: Gene expression microarray analysis (Affymetrix PrimeView) and GSEA
Type: cell-based, human
Set-up: RFU PODN (11730768_x_at) / Fold change /veh PODN (11730768_x_at) / RFU LINC00158 (11744669_a_at) / Fold change /veh LINC00158 (11744669_a_at) / RFU DUSP10 (11751237_a_at) / Fold change /veh DUSP10 (11751237_a_at) / RFU ID3 (11757404_x_at) / Fold change /veh ID3 (11757404_x_at) / RFU PLEKHG5 (11737974_s_at) / Fold change /veh PLEKHG5 (11737974_s_at) / RFU LRRC4B (11730491_at) / Fold change /veh LRRC4B (11730491_at) / RFU GIMAP4 (11747438_a_at) / Fold change /veh GIMAP4 (11747438_a_at) / RFU KRT8 (11758183_x_at) / Fold change /veh KRT8 (11758183_x_at) / RFU CNN1 (11734310_a_at) / Fold change /veh CNN1 (11734310_a_at) / RFU VPS37D (11726825_at) / Fold change /veh VPS37D (11726825_at) / RFU C10orf10 (11716522_x_at) / Fold change /veh C10orf10 (11716522_x_at) / RFU KIR2DL2 /// KIR2DL4 /// KIR2DL5A /// KIR2DL5B /// KIR2DS1 /// KIR2DS2 /// KIR2DS3 /// KIR2DS4 /// KIR3DL3 /// KIR3DL3 /// KIR3DS1 (11738374_at) / Fold change /veh KIR2DL2 /// KIR2DL4 /// KIR2DL5A /// KIR2DL5B /// KIR2DS1 /// KIR2DS2 /// KIR2DS3 /// KIR2DS4 /// KIR3DL3 /// KIR3DL3 /// KIR3DS1 (11738374_at) / RFU C1QL1 (11718748_at) / Fold change /veh C1QL1 (11718748_at) / RFU TMPRSS4 (11747572_a_at) / Fold change /veh TMPRSS4 (11747572_a_at) / RFU HAMP (11756126_x_at) / Fold change /veh HAMP (11756126_x_at) / RFU RNFT2 (11725882_a_at) / Fold change /veh RNFT2 (11725882_a_at) / RFU NR4A2 (11747474_a_at) / Fold change /veh NR4A2 (11747474_a_at) / RFU ABCC12 (11746883_a_at) / Fold change /veh ABCC12 (11746883_a_at) / RFU TMEM136 (11760407_x_at) / Fold change /veh TMEM136 (11760407_x_at) / RFU CLDN22 /// WWC2 (11732394_at) / Fold change /veh CLDN22 /// WWC2 (11732394_at) / RFU HLA-DPB1 (11760878_x_at) / Fold change /veh HLA-DPB1 (11760878_x_at) / RFU SPINT1 (11716480_a_at) / Fold change /veh SPINT1 (11716480_a_at) / RFU GAP43 (11754022_s_at) / Fold change /veh GAP43 (11754022_s_at) / RFU A4GNT (11735810_at) / Fold change /veh A4GNT (11735810_at) / RFU PRB3 (11715151_x_at) / Fold change /veh PRB3 (11715151_x_at) / RFU TUBB4B (11761932_at) / Fold change /veh TUBB4B (11761932_at) / RFU CAPN14 (11732068_a_at) / Fold change /veh CAPN14 (11732068_a_at) / RFU TMCC2 (11721928_a_at) / Fold change /veh TMCC2 (11721928_a_at) / RFU IRGQ (11745062_a_at) / Fold change /veh IRGQ (11745062_a_at) / RFU FAM174B (11720279_a_at) / Fold change /veh FAM174B (11720279_a_at) / RFU TMPRSS4 (11748680_a_at) / Fold change /veh TMPRSS4 (11748680_a_at) / RFU FAM212B (11763350_a_at) / Fold change /veh FAM212B (11763350_a_at) / RFU PLEKHG5 (11743358_a_at) / Fold change /veh PLEKHG5 (11743358_a_at) / RFU ZSCAN30 (11745921_a_at) / Fold change /veh ZSCAN30 (11745921_a_at) / RFU CMKLR1 (11741424_a_at) / Fold change /veh CMKLR1 (11741424_a_at) / RFU LOC101060620 /// MAPK8IP1 (11723275_at) / Fold change /veh LOC101060620 /// MAPK8IP1 (11723275_at) / RFU SPTSSB (11747773_x_at) / Fold change /veh SPTSSB (11747773_x_at) / RFU PRSS12 (11739890_at) / Fold change /veh PRSS12 (11739890_at) / RFU BIN1 (11741810_x_at) / Fold change /veh BIN1 (11741810_x_at) / RFU WNT11 (11732464_a_at) / Fold change /veh WNT11 (11732464_a_at) / RFU C10orf10 (11716521_a_at) / Fold change /veh C10orf10 (11716521_a_at) / RFU C5orf56 (11738089_at) / Fold change /veh C5orf56 (11738089_at) / RFU CYB561 (11721691_x_at) / Fold change /veh CYB561 (11721691_x_at) / RFU ANKRD19P (11752326_a_at) / Fold change /veh ANKRD19P (11752326_a_at) / RFU OR2T12 /// OR2T33 /// OR2T8 (11738714_s_at) / Fold change /veh OR2T12 /// OR2T33 /// OR2T8 (11738714_s_at) / RFU VCAN (11748164_a_at) / Fold change /veh VCAN (11748164_a_at) / RFU JSRP1 (11732532_at) / Fold change /veh JSRP1 (11732532_at) / RFU KRTAP10-11 (11738290_x_at) / Fold change /veh KRTAP10-11 (11738290_x_at) / RFU MYO3A (11730013_a_at) / Fold change /veh MYO3A (11730013_a_at) / RFU EBF3 (11725865_a_at) / Fold change /veh EBF3 (11725865_a_at) / RFU CAMK2N1 (11719241_x_at) / Fold change /veh CAMK2N1 (11719241_x_at) / RFU C5orf56 (11738088_a_at) / Fold change /veh C5orf56 (11738088_a_at) / RFU OLFML3 (11715873_a_at) / Fold change /veh OLFML3 (11715873_a_at) / RFU LOC100653217 /// NTM (11731650_a_at) / Fold change /veh LOC100653217 /// NTM (11731650_a_at) / RFU MAPK11 (11762145_a_at) / Fold change /veh MAPK11 (11762145_a_at) / RFU FIZ1 (11724087_x_at) / Fold change /veh FIZ1 (11724087_x_at) / RFU OASL (11726364_x_at) / Fold change /veh OASL (11726364_x_at) / RFU SOX15 (11748057_x_at) / Fold change /veh SOX15 (11748057_x_at) / RFU CD79A (11719716_a_at) / Fold change /veh CD79A (11719716_a_at) / RFU HIST1H1D (11736915_at) / Fold change /veh HIST1H1D (11736915_at) / RFU CASKIN2 (11723855_a_at) / Fold change /veh CASKIN2 (11723855_a_at) / RFU LOC730098 (11760151_x_at) / Fold change /veh LOC730098 (11760151_x_at) / RFU OR4N2 (11742367_at) / Fold change /veh OR4N2 (11742367_at) / RFU PRRT2 (11749266_a_at) / Fold change /veh PRRT2 (11749266_a_at) / RFU SNX32 (11753110_a_at) / Fold change /veh SNX32 (11753110_a_at) / RFU CDHR5 (11726645_a_at) / Fold change /veh CDHR5 (11726645_a_at) / RFU RCAN1 (11760418_a_at) / Fold change /veh RCAN1 (11760418_a_at) / RFU FAM167A (11723789_a_at) / Fold change /veh FAM167A (11723789_a_at) / RFU FAM26E (11764081_at) / Fold change /veh FAM26E (11764081_at) / RFU ISYNA1 (11749810_s_at) / Fold change /veh ISYNA1 (11749810_s_at) / RFU ACY1 (11761880_at) / Fold change /veh ACY1 (11761880_at) / RFU 11764098_at / Fold change /veh 11764098_at / RFU SAMD14 (11745864_x_at) / Fold change /veh SAMD14 (11745864_x_at) / RFU NPB (11741838_a_at) / Fold change /veh NPB (11741838_a_at) / RFU TMPRSS6 (11731388_a_at) / Fold change /veh TMPRSS6 (11731388_a_at) / RFU KRTAP10-2 (11738614_at) / Fold change /veh KRTAP10-2 (11738614_at) / RFU ARHGAP8 /// PRR5-ARHGAP8 (11727945_x_at) / Fold change /veh ARHGAP8 /// PRR5-ARHGAP8 (11727945_x_at) / RFU KRTAP5-7 /// NADSYN1 (11734609_at) / Fold change /veh KRTAP5-7 /// NADSYN1 (11734609_at) / RFU RASL12 (11751679_a_at) / Fold change /veh RASL12 (11751679_a_at) / RFU CDKN2B (11736163_a_at) / Fold change /veh CDKN2B (11736163_a_at) / RFU PRF1 (11729649_at) / Fold change /veh PRF1 (11729649_at) / RFU, ZNF638 /// ZNF638-IT1 / Fold change vs veh, ZNF638 /// ZNF638-IT1 / RFU, PANK3 / Fold change vs veh, PANK3 / RFU, SH3YL1 / Fold change vs veh, SH3YL1 / RFU, ZEB2 / Fold change vs veh, ZEB2 / RFU, NRIP1 / Fold change vs veh, NRIP1 / RFU, PTTG1IP / Fold change vs veh, PTTG1IP / RFU, CAPN2 / Fold change vs veh, CAPN2 / RFU, MED14 / Fold change vs veh, MED14 / RFU, SNORA58 / Fold change vs veh, SNORA58 / RFU, C1orf63 / Fold change vs veh, C1orf63 / RFU, LRRFIP1 / Fold change vs veh, LRRFIP1 / RFU, NDUFAF7 / Fold change vs veh, NDUFAF7 / RFU, SLC12A2 / Fold change vs veh, SLC12A2 / RFU, IBTK / Fold change vs veh, IBTK / RFU, ESF1 / Fold change vs veh, ESF1 / Fold change vs veh, TMEM50B / RFU, TAOK1 / Fold change vs veh, TAOK1 / RFU, ACBD3 / Fold change vs veh, ACBD3 / RFU, TMA16 / Fold change vs veh, TMA16 / RFU, RWDD3 / Fold change vs veh, RWDD3 / RFU, BCAT1 / Fold change vs veh, BCAT1 / RFU, EDEM3 / Fold change vs veh, EDEM3 / RFU, TMEM33 / Fold change vs veh, TMEM33 / RFU, WDR75 / Fold change vs veh, WDR75 / RFU, AHCTF1 / Fold change vs veh, AHCTF1 / RFU, TFRC / Fold change vs veh, TFRC / RFU, ZDHHC17 / Fold change vs veh, ZDHHC17 / RFU, NOM1 / Fold change vs veh, NOM1 / RFU, ARL8B / Fold change vs veh, ARL8B / RFU, ZBTB11 / Fold change vs veh, ZBTB11 / RFU, TAMM41 / Fold change vs veh, TAMM41 / RFU, KIAA1704 /// LOC100996395 / Fold change vs veh, KIAA1704 /// LOC100996395 / RFU, ING1 / Fold change vs veh, ING1 / RFU, TRMT61B / Fold change vs veh, TRMT61B / RFU, FUBP3 / Fold change vs veh, FUBP3 / RFU, TP53 / Fold change vs veh, TP53 / RFU, TNKS2 / Fold change vs veh, TNKS2 / RFU, ZFP14 / Fold change vs veh, ZFP14 / RFU, ACTR2 / Fold change vs veh, ACTR2 / RFU, PPP3R1 / Fold change vs veh, PPP3R1 / RFU, PIK3R1 / Fold change vs veh, PIK3R1 / RFU, HNRNPA1 / Fold change vs veh, HNRNPA1 / RFU, RNF170 / Fold change vs veh, RNF170 / RFU, ZNF28 / Fold change vs veh, ZNF28 / RFU, RNGTT / Fold change vs veh, RNGTT / RFU, OGT / Fold change vs veh, OGT / RFU, BRD1 / Fold change vs veh, BRD1 / RFU, MARS / Fold change vs veh, MARS / RFU, ZNF655 / Fold change vs veh, ZNF655 / RFU, FAHD1 / Fold change vs veh, FAHD1 / RFU, BDP1 / Fold change vs veh, BDP1 / RFU, LRRCC1 / Fold change vs veh, LRRCC1 / RFU, ARID1A / Fold change vs veh, ARID1A / RFU, ZNF146 / Fold change vs veh, ZNF146 / RFU, ZNF330 / Fold change vs veh, ZNF330 / RFU, GPN3 / Fold change vs veh, GPN3 / RFU, C9orf123 / Fold change vs veh, C9orf123 / RFU, N4BP2L2 / Fold change vs veh, N4BP2L2 / RFU, ARFIP1 / Fold change vs veh, ARFIP1 / RFU, FAM179B / Fold change vs veh, FAM179B / RFU, BCL10 / Fold change vs veh, BCL10 / RFU, UHRF1BP1L / Fold change vs veh, UHRF1BP1L / RFU, BET1 / Fold change vs veh, BET1 / RFU, CNOT2 / Fold change vs veh, CNOT2 / RFU, ZNF268 / Fold change vs veh, ZNF268 / Fold change vs veh, ZNF507 / RFU, DGCR2 / Fold change vs veh, DGCR2 / RFU, WDSUB1 / Fold change vs veh, WDSUB1 / Fold change vs veh, HSP90B1 /// MIR3652 / RFU, ADSS / Fold change vs veh, ADSS / RFU, GK / Fold change vs veh, GK / RFU, ZNF148 / Fold change vs veh, ZNF148 / RFU, TAF9 / Fold change vs veh, TAF9 / RFU, SLC1A5 / Fold change vs veh, SLC1A5 / RFU, SLMO2 / Fold change vs veh, SLMO2 / RFU, ABCC4 / Fold change vs veh, ABCC4 / RFU, LOC101060439 /// RAP1B / Fold change vs veh, LOC101060439 /// RAP1B / RFU, RFX7 / Fold change vs veh, RFX7 / RFU, GTPBP10 / Fold change vs veh, GTPBP10 / RFU, CNEP1R1 / Fold change vs veh, CNEP1R1 / RFU, BIVM-ERCC5 /// ERCC5 / Fold change vs veh, BIVM-ERCC5 /// ERCC5 / RFU, ILF3 / Fold change vs veh, ILF3 / RFU 11762660_at / Fold change /veh 11762660_at / RFU VCAN (11757783_s_at) / Fold change /veh VCAN (11757783_s_at) / RFU DDX43 (11728927_at) / Fold change /veh DDX43 (11728927_at) / RFU KRT8 (11758188_x_at) / Fold change /veh KRT8 (11758188_x_at) / RFU NKD1 (11759106_at) / Fold change /veh NKD1 (11759106_at) / RFU SRD5A1 (11742802_a_at) / Fold change /veh SRD5A1 (11742802_a_at) / RFU TPSAB1 /// TPSB2 (11721975_s_at) / Fold change /veh TPSAB1 /// TPSB2 (11721975_s_at) / RFU GSTM3 (11746129_a_at) / Fold change /veh GSTM3 (11746129_a_at) / RFU IL23R (11737362_x_at) / Fold change /veh IL23R (11737362_x_at) / RFU TMEM51 (11727254_a_at) / Fold change /veh TMEM51 (11727254_a_at) / RFU PIWIL2 (11732686_x_at) / Fold change /veh PIWIL2 (11732686_x_at) / RFU ORM1 (11744905_x_at) / Fold change /veh ORM1 (11744905_x_at) / RFU CCDC152 (11743942_at) / Fold change /veh CCDC152 (11743942_at) / RFU ECM1 (11717891_a_at) / Fold change /veh ECM1 (11717891_a_at) / RFU IL23R (11748794_a_at) / Fold change /veh IL23R (11748794_a_at) / RFU TNFAIP8L3 (11732012_x_at) / Fold change /veh TNFAIP8L3 (11732012_x_at) / RFU MBOAT4 (11741988_at) / Fold change /veh MBOAT4 (11741988_at) / RFU 11764193_at / Fold change /veh 11764193_at / RFU TMEM53 (11763286_at) / Fold change /veh TMEM53 (11763286_at) / RFU MAGEB2 (11727129_at) / Fold change /veh MAGEB2 (11727129_at) / RFU TMEM200A (11744735_a_at) / Fold change /veh TMEM200A (11744735_a_at) / RFU CCDC152 (11751479_a_at) / Fold change /veh CCDC152 (11751479_a_at) / RFU FAM211A (11726209_a_at) / Fold change /veh FAM211A (11726209_a_at) / RFU RGS16 (11746705_a_at) / Fold change /veh RGS16 (11746705_a_at) / RFU VCAN (11755009_s_at) / Fold change /veh VCAN (11755009_s_at) / RFU RHOB (11743442_s_at) / Fold change /veh RHOB (11743442_s_at) / RFU RGS16 (11720943_a_at) / Fold change /veh RGS16 (11720943_a_at) / RFU RGS16 (11720944_at) / Fold change /veh RGS16 (11720944_at) / RFU, VPS4B / Fold change vs veh, VPS4B / RFU, CREB1 / Fold change vs veh, CREB1 / RFU, DNAJC13 / Fold change vs veh, DNAJC13 / RFU, GNAQ / Fold change vs veh, GNAQ / RFU, CDK5R1 / Fold change vs veh, CDK5R1 / RFU, ZRANB3 / Fold change vs veh, ZRANB3 / RFU, CUL4A / Fold change vs veh, CUL4A / RFU, CCNY / Fold change vs veh, CCNY / RFU, UFL1 / Fold change vs veh, UFL1 / RFU, COG3 / Fold change vs veh, COG3 / RFU, DIAPH2 / Fold change vs veh, DIAPH2 / RFU, SKA2 / Fold change vs veh, SKA2 / RFU, AFF3 / Fold change vs veh, AFF3 / RFU, LMF1 / Fold change vs veh, LMF1 / RFU, IPO11 / Fold change vs veh, IPO11 / RFU, DFFB / Fold change vs veh, DFFB / RFU, FOXP1 / Fold change vs veh, FOXP1 / RFU, CARD8 / Fold change vs veh, CARD8 / RFU, STRN3 / Fold change vs veh, STRN3 / RFU, ADK / Fold change vs veh, ADK / RFU, RASSF2 / Fold change vs veh, RASSF2 / RFU, WIPF1 / Fold change vs veh, WIPF1 / RFU, LARP1B / Fold change vs veh, LARP1B / RFU, RASA1 / Fold change vs veh, RASA1 / RFU, RB1 / Fold change vs veh, RB1 / RFU, PPFIA1 / Fold change vs veh, PPFIA1 / RFU, MAT2A / Fold change vs veh, MAT2A / RFU, CCT5 / Fold change vs veh, CCT5 / RFU, WDR92 / Fold change vs veh, WDR92 / RFU, CUX1 / Fold change vs veh, CUX1 / RFU, TTC7A / Fold change vs veh, TTC7A / RFU, TMEM135 / Fold change vs veh, TMEM135 / RFU, DEPTOR / Fold change vs veh, DEPTOR / RFU, CPM / Fold change vs veh, CPM / RFU, DNAJB6 / Fold change vs veh, DNAJB6 / RFU, CACNA2D3 / Fold change vs veh, CACNA2D3 / RFU, DTX4 / Fold change vs veh, DTX4 / RFU, TFCP2 / Fold change vs veh, TFCP2 / RFU, GMCL1 /// GMCL1P1 / Fold change vs veh, GMCL1 /// GMCL1P1 / RFU, AEBP2 / Fold change vs veh, AEBP2 / RFU, SNHG1 /// SNORD22 /// SNORD25 /// SNORD26 /// SNORD27 /// SNORD28 /// SNORD29 /// SNORD31 / Fold change vs veh, SNHG1 /// SNORD22 /// SNORD25 /// SNORD26 /// SNORD27 /// SNORD28 /// SNORD29 /// SNORD31 / Fold change (Aza/veh), C12orf56 (ProbeSet 11735607_a_at) / Fold change (ACY-1035/veh), C12orf56 (ProbeSet 11735607_a_at) / Fold change (Aza/veh), FGFR1OP (ProbeSet 11751329_s_at) / Fold change (ACY-1035/veh), FGFR1OP (ProbeSet 11751329_s_at) / Fold change (Aza/veh), VPS36 (ProbeSet 11739960_a_at) / Fold change (ACY-1035/veh), VPS36 (ProbeSet 11739960_a_at) / RFU SYPL1 (11715823_x_at) / Fold change /veh SYPL1 (11715823_x_at) / RFU IGFBP7 (11715501_s_at) / Fold change /veh IGFBP7 (11715501_s_at) / RFU REEP3 (11722064_at) / Fold change /veh REEP3 (11722064_at) / RFU IGLL1 (11728026_x_at) / Fold change /veh IGLL1 (11728026_x_at): dose or concentration left out as unconfirmed
Details: ProbeSet 11743882_a_at; LIST D

Structure (SMILES): Nc1ccc(-c2cccs2)cc1NC(=O)c1ccc2c(c1)cc(C1CC1)n2CCN1CCOCC1 [ACY-1035]
- Fold change vs veh, STRN3: 0.92
